The values that follow come from US20250179025A1, “CRYSTALLINE FORM OF DAROLUTAMIDE” (QUÍMICA SINTÉTICA, S.A., priority 2022, published 2025).

Data set [1] in a line: Determination of specific surface area (SSA), multi-point nitrogen adsorption BET. It counts as physicochemical. As to conditions: samples vacuum dried overnight at 45° C.; relative pressure 0.05-0.3 p/p0; eleven linear points. From the text: The term “about” includes the range of experimental errors, which can normally occur performing a measurement, e.g. ±5% or ±2% or ±1%. Sometimes, such a range can lie within the experimental error, typical of standard methods used for the measurement and/or determination of a given value or range. Particularly, the measurement uncertainty for the Multi-Point B.E.T. specific surface area parameter is equal to 15% for a SSA value greater than 2 m^2/g, and 20% for a SSA less than 2 m^2/g. It is expressed as extended uncertainty obtained by multiplying standard uncertainty by the coverage factor k equal to 2, corresponding to confidence level of about 95%. The uncertainty is related to the method of analysis and obtained as percent value from the analysis of a representative group of samples in the measurement range of the instrument.
Unless otherwise indicated, the data relative to the peaks in the XRPD pattern are meant within the common uncertainty due to the instrument measurement, typically ±0.2 degrees 2θ, when collected with the Kα radiation of copper (λ=1.5419 Å) at room temperature. The present invention provides, in one aspect, a new form of N-[(2S)-1-[3-(3-chloro-4-cyanophenyl)-1H-pyrazol-1-yl]-propan-2-yl]-5-(1-hydroxyethyl)-1H-pyrazole-3-carboxamide (darolutamide), herein called nanocrystalline form or NC form or Form NC, said nanocrystalline form being characterized by having specific surface area (SSA) in the range from about 40 m^2/g to about 150 m^2/g, preferably from about 50 m^2/g to about 135 m^2/g, more preferably from about 60 m^2/g to about 135 m^2/g analyzed using the multi-point nitrogen adsorption technique based on the Brunauer, Emmett and Teller (BET) theory, for example using TriStar (II) automated gas adsorption analyzer, (Micromeritics, Inc.). The samples are suitably vacuum dried overnight at 45° C. The volumetric method can be used at the relative pressure range of 0.05-0.3 p/p0 as reported in the experimental part. Specific surface area is an important physical property for an active pharmaceutical ingredient. This parameter can greatly influence the process of preparation of drugs, such as filtration, purification, blending, tableting as well as the characteristics of the active pharmaceutical ingredient especially its dissolution rate and, in turn, its bio-availability as generally known in the art, e.g. from Kyung Rok Chu et al. Effect of particle size on the dissolution behaviours of poorly water-soluble drugs, Arch. Pharm. Res., 2012 July, 35(7), 1187-95, DOI 10.1007/s12272-012-0709-3.
The specific surface area was measured using the multi-point nitrogen adsorption technique based on the Brunauer, Emmett and Teller (BET) theory using TriStar (II) automated gas adsorption analyzer (Micromeritics, Inc.). All the samples were dried under vacuum overnight hours at 45° C. The volumetric method was applied at the relative pressure range 0.05-0.3 p/p^0, and the Specific Surface Area values were calculated in said pressure range using “Multi-Point BET” calculation method based on eleven linear points.

The conditions of data set [2]: values reported in WO 2018/162793 or by its applicant in annex 1 during European prosecution; cited from earlier work.
For data set [3] the following is noted: poorly soluble in the physiological pH range; cited from earlier work.
Data set [4] is described as follows: Stability study at 40° C. and 75% RH (HPLC purity, XRPD). The data set is classed as physicochemical. As to conditions: double PE bag in HDPE bottle, 1, 3, 6 and 12 months. The protocol:
5 aliquots of about 1 g of nanocrystalline form of present invention were stored at the following conditions wherein RH is referred to relative humidity: • 40° C. and 75% RH, double PE bag in HDPE bottle
The sample were analysed before the storage (To), after 1 month, 3 months, 6 months and 12 months using high performance chromatography (HPLC) method to control the purity and X-ray powder diffractogram (XRPD) to evaluate any change in crystalline form.

Converted amounts (≈) assume the structure as drawn. Where two headings read alike, the source gives them in different places.

With `CC(O)c1cc(C(=O)N[C@@H](C)Cn2ccc(-c3ccc(C#N)c(Cl)c3)n2)[nH]n1` (single isomer, unassigned) [Example 3, darolutamide], the “Specific Surface Area (SSA) Multi-point BET” value (“Specific Surface Area” below) in data set [1] came to 134.0 m^2/g. Further, the “Concentration of Darolutamide in saturated solution” value (“Concentration of Darolutamide” below) was 0 µg/mL (0 min, pH 1); 0 µg/mL (0 min, pH 7.5); 159 µg/mL (5 min, pH 1); 162 µg/mL (5 min, pH 7.5); 162 µg/mL (10 min, pH 1); 155 µg/mL (10 min, pH 7.5). Moreover, the “Concentration of Darolutamide” value turned out to be 117 µg/mL (60 min, pH 1) and 132 µg/mL (60 min, pH 7.5).

On to `CC(O)c1cc(C(=O)N[C@@H](C)Cn2ccc(-c3ccc(C#N)c(Cl)c3)n2)[nH]n1` (single isomer, unassigned) [Example 4, darolutamide], for which the “Specific Surface Area” value in data set [1] is recorded as 111.7 m^2/g. The “Concentration of Darolutamide” value was 0 µg/mL (0 min, pH 1); 0 µg/mL (0 min, pH 7.5); 137 µg/mL (5 min, pH 1); 157 µg/mL (5 min, pH 7.5); 146 µg/mL (10 min, pH 1); 149 µg/mL (10 min, pH 7.5). For the same molecule, the “Concentration of Darolutamide” value is, setting by setting: (60 min, pH 1) 113 µg/mL; (60 min, pH 7.5) 109 µg/mL.

For the molecule `CC(O)c1cc(C(=O)N[C@@H](C)Cn2ccc(-c3ccc(C#N)c(Cl)c3)n2)[nH]n1` (single isomer, unassigned) [Example 5, darolutamide], the “Specific Surface Area” value in data set [1] is given as 66.8 m^2/g. Besides, the “Concentration of Darolutamide” value runs as follows: (0 min, pH 1) 0 µg/mL; (0 min, pH 7.5) 0 µg/mL; (5 min, pH 1) 117 µg/mL; (5 min, pH 7.5) 128 µg/mL; (10 min, pH 1) 126 µg/mL; (10 min, pH 7.5) 132 µg/mL. Besides, the “Concentration of Darolutamide” value amounted to 113 µg/mL (60 min, pH 1) and 109 µg/mL (60 min, pH 7.5).

As to `CC(O)c1cc(C(=O)N[C@@H](C)Cn2ccc(-c3ccc(C#N)c(Cl)c3)n2)[nH]n1` (stereo partly drawn) [Comparative example 1a, darolutamide], the “Specific Surface Area” value in data set [1] is 26.6 m^2/g. In addition, the “Concentration of Darolutamide” value (0 min, pH 1) is 0 µg/mL; the “Concentration of Darolutamide” value (0 min, pH 7.5) worked out at 0 µg/mL; the “Concentration of Darolutamide” value (5 min, pH 1) came out at 20 µg/mL; the “Concentration of Darolutamide” value (5 min, pH 7.5) came to 20 µg/mL; the “Concentration of Darolutamide” value (10 min, pH 1) turned out to be 20 µg/mL; the “Concentration of Darolutamide” value (10 min, pH 7.5) worked out at 21 µg/mL. Moreover, the “Concentration of Darolutamide” value runs as follows: (60 min, pH 1) 17 µg/mL; (60 min, pH 7.5) 19 µg/mL.

Take `CC(O)c1cc(C(=O)N[C@@H](C)Cn2ccc(-c3ccc(C#N)c(Cl)c3)n2)[nH]n1` (stereo partly drawn) [Comparative example 1b, darolutamide]: the “Specific Surface Area” value in data set [1] was 29.5 m^2/g.

Consider `CC(O)c1cc(C(=O)N[C@@H](C)Cn2ccc(-c3ccc(C#N)c(Cl)c3)n2)[nH]n1` (stereo partly drawn) [Comparative example 1c, darolutamide], for which the “Specific Surface Area” value in data set [1] stood at 34.4 m^2/g.

`CC(O)c1cc(C(=O)N[C@@H](C)Cn2ccc(-c3ccc(C#N)c(Cl)c3)n2)[nH]n1` (stereo partly drawn) [Comparative example 2, darolutamide]: the “Specific Surface Area” value in data set [1] was found to be 11.6 m^2/g. For the same molecule, the “Concentration of Darolutamide” value is, setting by setting: (0 min, pH 1) 0 µg/mL; (0 min, pH 7.5) 0 µg/mL; (5 min, pH 1) 23 µg/mL; (5 min, pH 7.5) 22 µg/mL; (10 min, pH 1) 22 µg/mL; (10 min, pH 7.5) 18 µg/mL. Moreover, the “Concentration of Darolutamide” value runs as follows: (60 min, pH 1) 22 µg/mL; (60 min, pH 7.5) 21 µg/mL.

For `CC(O)c1cc(C(=O)N[C@@H](C)Cn2ccc(-c3ccc(C#N)c(Cl)c3)n2)[nH]n1` (stereo partly drawn) [Crystalline rounded particles sample A unmilled] [darolutamide], in data set [2], the “Specific Surface Area” value is listed as 13 m^2/g.

Regarding `CC(O)c1cc(C(=O)N[C@@H](C)Cn2ccc(-c3ccc(C#N)c(Cl)c3)n2)[nH]n1` (stereo partly drawn) [Crystalline rounded particles sample B unmilled] [darolutamide], the “Specific Surface Area” value in data set [2] is recorded as 12 m^2/g.

For the molecule `CC(O)c1cc(C(=O)N[C@@H](C)Cn2ccc(-c3ccc(C#N)c(Cl)c3)n2)[nH]n1` (stereo partly drawn) [Example 10, darolutamide], in data set [1], the “Specific Surface Area” value is listed as 121.6 m^2/g.

As for `CC(O)c1cc(C(=O)N[C@@H](C)Cn2ccc(-c3ccc(C#N)c(Cl)c3)n2)[nH]n1` (stereo partly drawn) [Example 11, darolutamide], the “Specific Surface Area” value in data set [1] was determined as 66.6 m^2/g.

In the case of `CC(O)c1cc(C(=O)N[C@@H](C)Cn2ccc(-c3ccc(C#N)c(Cl)c3)n2)[nH]n1` (stereo partly drawn) [Example 23, darolutamide], the “Specific Surface Area” value in data set [1] was 46.0 m^2/g.

With `CC(O)c1cc(C(=O)N[C@@H](C)Cn2ccc(-c3ccc(C#N)c(Cl)c3)n2)[nH]n1` (stereo partly drawn) [Example 24, darolutamide], the “Specific Surface Area” value in data set [1] was 43.8 m^2/g.

As for `CC(O)c1cc(C(=O)N[C@@H](C)Cn2ccc(-c3ccc(C#N)c(Cl)c3)n2)[nH]n1` (stereo partly drawn) [Form I, darolutamide], for the setting “5 min”, the solubility concentration is 20 µg/mL (≈ 50.1 µM). Besides, the “Specific Surface Area” value in data set [2] is recorded as 22.1 m^2/g.

For the setting “5 min”, `CC(O)c1cc(C(=O)N[C@@H](C)Cn2ccc(-c3ccc(C#N)c(Cl)c3)n2)[nH]n1` (stereo partly drawn) [crystalline rounded particles, darolutamide] returned a solubility concentration of 20 µg/mL.

Turning to `CC(O)c1cc(C(=O)N[C@@H](C)Cn2ccc(-c3ccc(C#N)c(Cl)c3)n2)[nH]n1` (stereo partly drawn) [darolutamide, N-[(2S)-1-[3-(3-chloro-4-cyanophenyl)-1H-pyrazol-1-yl]-propan-2-yl]-5-(1-hydroxyethyl)-1H-pyrazole-3-carboxamide], the “Biopharmaceutics Classification System (BCS) class” value in data set [3] is “class II”.

For `CC(O)c1cc(C(=O)N[C@@H](C)Cn2ccc(-c3ccc(C#N)c(Cl)c3)n2)[nH]n1` (stereo partly drawn) [nanocrystalline form, N-[(2S)-1-[3-(3-chloro-4-cyanophenyl)-1H-pyrazol-1-yl]-propan-2-yl]-5-(1-hydroxyethyl)-1H-pyrazole-3-carboxamide], in data set [4], the “chemical stability: purity by HPLC versus initial profile at T0” value was “does not present a significant worsening of the purity” and the “physical stability: change in crystalline form by XRPD” value is recorded as “no signs of transformation into a different crystalline form”. For the setting “5 min”, the solubility concentration lay within 120 to 160 µg/mL.
